Among the data in patent US20230295096A1, “PYRAZOLE CARBOXAMIDE COMPOUNDS FOR TREATMENT OF HBV” (ASSEMBLY BIOSCIENCES, INC., priority 2020, published 2023) are EC50 values, retold here.

Usually pEC50 stands for −log10 of the EC50, conventionally taken in molar units.

pEC50: −log10 of the molar value.

In one experiment the test system is HBV. Nature of the experiment: Viral load production from HepAD38 cells, qPCR of the HBV core sequence in supernatant. Type of experiment: cell-based. The note with it: HepAD38 cells, 5 days, HBV DNA in supernatant by qPCR; Table 1 ranges; read-out: Activity (viral load lowering EC50). Put shortly: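 EC50 and CC50 come from four-parameter logistic fits of supernatant HBV core DNA (TaqMan qPCR, DNA standards, compared with DMSO wells) and of CellTiter-Glo luminescence.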
For orientation: Real-time PCR tracks product formation cycle by cycle.
For `Cn1nc(C2CC3CC(O)(CNc4ncc(F)cn4)CC3C2)c(C(=O)Nc2ccc(F)c(Cl)c2)c1N` (stereo not drawn) [Example 213], the pEC50 was 7.30 to 8.00.

Staying with this experiment, now noted: Hepatitis B virus, HePAD38, 120 h, HepAD38 cells, 5 days, HBV DNA in supernatant by qPCR; Table 1 ranges; read-out: Activity (viral load lowering EC50).
Take `CC(C)n1nccc1C1(O)CC2CC(c3nn(C)c(N)c3C(=O)Nc3ccc(F)c(Cl)c3)CC2C1` (stereo not drawn) [Example 200]: the pEC50 was above 8.00.

With `Cn1nc(C2CC3CC(O)(CNc4ncc(F)cn4)CC3C2)c(C(=O)Nc2ccc(F)c(Cl)c2)c1N` (stereo not drawn) [Example 201], the pEC50 is above 8.00.

Turning to `CC(C)n1nc([N+](=O)[O-])cc1C1(O)CC2CC(c3nn(C)c(N)c3C(=O)Nc3ccc(F)c(Cl)c3)CC2C1` (stereo not drawn) [Example 206], the pEC50 was above 8.00.

In the case of `Cn1nc(C(F)(F)F)c(C2(O)CC3CC(c4nn(C)c(N)c4C(=O)Nc4ccc(F)c(Cl)c4)CC3C2)n1` (stereo not drawn) [Example 207], the negative-log EC50 (pEC50) was above 8.00.

Regarding `Cn1nc(C2CC3CC(O)(c4c(Cl)cnn4C)CC3C2)c(C(=O)Nc2ccc(F)c(Cl)c2)c1N` (stereo not drawn) [Example 208], the pEC50 was above 8.00.

For the compound `Cn1nc(C2CC3CC(O)(c4c(F)cnn4C)CC3C2)c(C(=O)Nc2ccc(F)c(Cl)c2)c1N` (stereo not drawn) [Example 209], the negative logarithm of the EC50 (pEC50) was above 8.00.

Turning to `CCn1nc(N)cc1C1(O)CC2CC(c3nn(C)c(N)c3C(=O)Nc3ccc(F)c(Cl)c3)CC2C1` (stereo not drawn) [Example 210], the pEC50 was above 8.00.

Take `CC(C)n1nc(N)cc1C1(O)CC2CC(c3nn(C)c(N)c3C(=O)Nc3ccc(F)c(Cl)c3)CC2C1` (stereo not drawn) [Example 211]: the pEC50 was above 8.00.

For `Cn1nc(C2CC3CC(O)(c4n[nH]cc4C(F)(F)F)CC3C2)c(C(=O)Nc2ccc(F)c(Cl)c2)c1N` (stereo not drawn) [Example 212], the pEC50 was above 8.00.

On to `CCn1nc(N)cc1C1=CC2CC(c3nn(C)c(N)c3C(=O)Nc3ccc(F)c(Cl)c3)CC2C1` (stereo not drawn) [Example 214], for which the pEC50 was above 8.00.

Take `Cn1nc(C2CC3CC(O)(c4cc(N)nn4C4CC4)CC3C2)c(C(=O)Nc2ccc(F)c(Cl)c2)c1N` (stereo not drawn) [Example 215]: the pEC50 was above 8.00.

Take `Cn1nc(C2CC3C=C(c4cc(N)nn4C4CC4)CC3C2)c(C(=O)Nc2ccc(F)c(Cl)c2)c1N` (stereo not drawn) [Example 216]: the pEC50 is 7.30 to 8.00.

On to `Cc1cc(C2(O)CC3CC(c4nn(C)c(N)c4C(=O)Nc4ccc(F)c(Cl)c4)CC3C2)n(C)n1` (stereo not drawn) [Example 217], for which the pEC50 was above 8.00.

For `Cn1nc(C2CC3CC(O)(c4cc([N+](=O)[O-])nn4C4CC4)CC3C2)c(C(=O)Nc2ccc(F)c(Cl)c2)c1N` (stereo not drawn) [Example 218], the pEC50 is above 8.00.

For `Cn1cc(C(F)(F)F)c(C2(O)CC3CC(c4nn(C)c(N)c4C(=O)Nc4ccc(F)c(Cl)c4)CC3C2)n1` (stereo not drawn) [Example 219], the pEC50 is above 8.00.

Take `Cn1cc(C2(O)CC3CC(c4nn(C)c(N)c4C(=O)Nc4ccc(F)c(Cl)c4)CC3C2)c(C(F)(F)F)n1` (stereo not drawn) [Example 220]: the pEC50 was above 8.00.

As for `Cn1nc(C2CC3CC(O)(c4c(Cl)c(N)nn4C)CC3C2)c(C(=O)Nc2ccc(F)c(Cl)c2)c1N` (stereo not drawn) [Example 221], the pEC50 was above 8.00.

`Cn1nc(C2CC3CC(O)(c4c[nH]nc4C(F)(F)F)CC3C2)c(C(=O)Nc2ccc(F)c(C#N)c2)c1N` (stereo not drawn) [Example 222]: the pEC50 is above 8.00.

In the case of `Cn1nc(C2CC3CC(O)(c4cc(C(F)(F)F)n[nH]4)CC3C2)c(C(=O)Nc2ccc(F)c(Cl)c2)c1N` (stereo not drawn) [Example 223], the pEC50 is above 8.00.

On to `Cn1nc(C2CC3CC(O)(c4[nH]nc(C(F)(F)F)c4Br)CC3C2)c(C(=O)Nc2ccc(F)c(Cl)c2)c1N` (stereo not drawn) [Example 224], for which the pEC50 is 7.30 to 8.00.

As for `COC(=O)CCC(=O)OCn1cc(C2(O)CC3CC(c4nn(C)c(N)c4C(=O)Nc4ccc(F)c(Cl)c4)CC3C2)c(C(F)(F)F)n1` (stereo not drawn) [Example 226], the pEC50 was above 8.00.

`COCCOCCOCCOCCOCCOCCOC(=O)OCn1cc(C2(O)CC3CC(c4nn(C)c(N)c4C(=O)Nc4ccc(F)c(Cl)c4)CC3C2)c(C(F)(F)F)n1` (stereo not drawn) [Example 228]: the pEC50 is above 8.00.

As for `COCCOCCOCCOCCOCCOCCOCCOC(=O)OCn1cc(C2(O)CC3CC(c4nn(C)c(N)c4C(=O)Nc4ccc(F)c(Cl)c4)CC3C2)c(C(F)(F)F)n1` (stereo not drawn) [Example 229], the pEC50 was above 8.00.

As for `Cn1nc(C2CC3CC(O)(c4cn(COC(=O)CCC(=O)OCc5ccccc5)nc4C(F)(F)F)CC3C2)c(C(=O)Nc2ccc(F)c(Cl)c2)c1N` (stereo not drawn) [Example 230], the pEC50 is above 8.00.

Take `Cn1nc(C2CC3CC(Oc4ncccn4)CC3C2)c(C(=O)Nc2ccc(F)c(Cl)c2)c1N` (stereo not drawn) [Example 231]: the pEC50 was 7.30 to 8.00.

The same experiment, now with this note: Hepatitis B virus, HePAD38, 120 h, read-out: Activity (viral load lowering EC50), HepAD38 cells, 5 days, HBV DNA in supernatant by qPCR; Table 1 ranges.
On to `Cn1nc(C2CC3CC(O)(Cc4ccc(S(C)(=O)=O)cn4)CC3C2)c(C(=O)Nc2ccc(F)c(Cl)c2)c1N` (stereo not drawn) [Exmaple 165], for which the pEC50 is above 8.00.
